Results from the NIST ThermoML archive (doi:10.1021/je400332j).

Experiment: xn = mol fraction of the nth substance listed
Conditions: 101 kPa, Liquid; for viscosity: Concentric cylinders viscometry; for mass density: Vibrating tube method

CCCCCCn1cc[n+](C)c1.F[B-](F)(F)F [1-hexyl-3-methylimidazolium tetrafluoroborate] + CCn1cc[n+](C)c1.F[B-](F)(F)F
Conditions	mass density [kg/m3]	viscosity [mPa·s]
293.15 K, x2 = 0	1147.5	280.4
293.15 K, x2 = 0.1009	1157.3	244.3
293.15 K, x2 = 0.2005	1168.1	210.7
293.15 K, x2 = 0.3003	1179.5	179.6
293.15 K, x2 = 0.4001	1191.4	151.7
293.15 K, x2 = 0.4999	1204.3	127.1
293.15 K, x2 = 0.6007	1218.1	105
293.15 K, x2 = 0.7004	1232.7	86.22
293.15 K, x2 = 0.8001	1248.5	69.78
293.15 K, x2 = 0.8998	1265.3	56.02
298.15 K, x2 = 0	1144.1	206.3
298.15 K, x2 = 0.1009	1153.9	180.8
298.15 K, x2 = 0.2005	1164.7	157.2
298.15 K, x2 = 0.3003	1176.1	135.1
298.15 K, x2 = 0.4001	1188	115.2
298.15 K, x2 = 0.4999	1200.8	97.48
298.15 K, x2 = 0.6007	1214.6	81.5
298.15 K, x2 = 0.7004	1229.1	67.79
298.15 K, x2 = 0.8001	1244.9	55.7
298.15 K, x2 = 0.8998	1261.7	45.42
303.15 K, x2 = 0	1140.6	154.9
303.15 K, x2 = 0.1009	1150.5	136.9
303.15 K, x2 = 0.2005	1161.2	119.8
303.15 K, x2 = 0.3003	1172.5	103.8
303.15 K, x2 = 0.4001	1184.4	89.33
303.15 K, x2 = 0.4999	1197.2	76.33
303.15 K, x2 = 0.6007	1211	64.52
303.15 K, x2 = 0.7004	1225.5	54.31
303.15 K, x2 = 0.8001	1241.2	45.2
303.15 K, x2 = 0.8998	1257.9	37.38
308.15 K, x2 = 0	1137.2	118.7
308.15 K, x2 = 0.1009	1147.1	105.5
308.15 K, x2 = 0.2005	1157.8	92.98
308.15 K, x2 = 0.3003	1169	81.23
308.15 K, x2 = 0.4001	1180.9	70.51
308.15 K, x2 = 0.4999	1193.6	60.8
308.15 K, x2 = 0.6007	1207.4	51.94
308.15 K, x2 = 0.7004	1221.8	44.18
308.15 K, x2 = 0.8001	1237.5	37.22
308.15 K, x2 = 0.8998	1254.2	31.18
313.15 K, x2 = 0	1133.7	92.56
313.15 K, x2 = 0.1009	1143.6	82.73
313.15 K, x2 = 0.2005	1154.3	73.45
313.15 K, x2 = 0.3003	1165.5	64.64
313.15 K, x2 = 0.4001	1177.4	56.57
313.15 K, x2 = 0.4999	1190.1	49.22
313.15 K, x2 = 0.6007	1203.8	42.45
313.15 K, x2 = 0.7004	1218.2	36.47
313.15 K, x2 = 0.8001	1233.8	31.06
313.15 K, x2 = 0.8998	1250.4	26.32
318.15 K, x2 = 0	1130.3	73.37
318.15 K, x2 = 0.1009	1140.3	65.95
318.15 K, x2 = 0.2005	1150.9	58.94
318.15 K, x2 = 0.3003	1162	52.24
318.15 K, x2 = 0.4001	1173.9	46.08
318.15 K, x2 = 0.4999	1186.5	40.41
318.15 K, x2 = 0.6007	1200.2	35.16
318.15 K, x2 = 0.7004	1214.6	30.49
318.15 K, x2 = 0.8001	1230.1	26.23
318.15 K, x2 = 0.8998	1246.7	22.48
323.15 K, x2 = 0	1127	59.03
323.15 K, x2 = 0.1009	1136.9	53.34
323.15 K, x2 = 0.2005	1147.4	47.98
323.15 K, x2 = 0.3003	1158.5	42.8
323.15 K, x2 = 0.4001	1170.4	38.02
323.15 K, x2 = 0.4999	1183	33.6
323.15 K, x2 = 0.6007	1196.6	29.48
323.15 K, x2 = 0.7004	1211	25.79
323.15 K, x2 = 0.8001	1226.4	22.4
323.15 K, x2 = 0.8998	1242.9	19.38
328.15 K, x2 = 0	1123.6	48.16
328.15 K, x2 = 0.1009	1133.5	43.73
328.15 K, x2 = 0.2005	1144	39.57
328.15 K, x2 = 0.3003	1155.1	35.51
328.15 K, x2 = 0.4001	1166.9	31.77
328.15 K, x2 = 0.4999	1179.4	28.27
328.15 K, x2 = 0.6007	1192.9	25.02
328.15 K, x2 = 0.7004	1207.4	22.05
328.15 K, x2 = 0.8001	1222.7	19.31
328.15 K, x2 = 0.8998	1239.2	16.85
333.15 K, x2 = 0	1120.2	39.71
333.15 K, x2 = 0.1009	1130.1	36.3
333.15 K, x2 = 0.2005	1140.6	33.02
333.15 K, x2 = 0.3003	1151.6	29.82
333.15 K, x2 = 0.4001	1163.4	26.83
333.15 K, x2 = 0.4999	1176	24.04
333.15 K, x2 = 0.6007	1189.5	21.41
333.15 K, x2 = 0.7004	1203.8	19.03
333.15 K, x2 = 0.8001	1219.1	16.8
333.15 K, x2 = 0.8998	1235.6	14.78
338.15 K, x2 = 0	1116.8	33.21
338.15 K, x2 = 0.1009	1126.7	30.47
338.15 K, x2 = 0.2005	1137.2	27.86
338.15 K, x2 = 0.3003	1148.2	25.3
338.15 K, x2 = 0.4001	1160	22.92
338.15 K, x2 = 0.4999	1172.5	20.64
338.15 K, x2 = 0.6007	1186	18.52
338.15 K, x2 = 0.7004	1200.2	16.56
338.15 K, x2 = 0.8001	1215.5	14.73
338.15 K, x2 = 0.8998	1231.9	13.05
343.15 K, x2 = 0	1113.4	28.03
343.15 K, x2 = 0.1009	1123.4	25.82
343.15 K, x2 = 0.2005	1133.8	23.74
343.15 K, x2 = 0.3003	1144.8	21.65
343.15 K, x2 = 0.4001	1156.5	19.72
343.15 K, x2 = 0.4999	1169	17.89
343.15 K, x2 = 0.6007	1182.4	16.11
343.15 K, x2 = 0.7004	1196.7	14.52
343.15 K, x2 = 0.8001	1212	13
343.15 K, x2 = 0.8998	1228.3	11.6
